Source: patent publication US11779567B2, “Method for optimizing 5-hydroxytryptamine function in the brain for therapeutic purposes” (Evecxia Therapeutics, Inc., priority 2021, dated 2023)
In brackets after ≈: the same amount, converted by molar mass.

What was measured:
Solubility of 5-HTP = format: physicochemical; details: water, read-out: aqueous solubility
Experimental: The aqueous solubility of 5-HTP is approximately 10 mg/ml. However, 5-HTP has been reported to be soluble to up to about 100 mg/ml in some solvents (Jacobsen et al, 2016a). In some embodiments, the concentration of 5-HTP in the infusion solutions (i.e., the infusate fluids) is between about 1 mg/ml and about 10 mg/ml. In some embodiments, the concentration is between about 0.1 mg/ml and about 1 mg/ml. In some embodiments, the concentration is between about 10 mg/ml and about 100 mg/ml.

[1] = Dose-proportionality assessment (power model) of IV 5-HTP continuous infusion; format: in vivo, human; details: doses up to 3 mg/kg/24 hr
Source text: Background: The term dose proportionality denotes a proportional and linear relationship between dose and a pharmacokinetic measure, for the specific (i) dose-range, (i) dosing route, and (iii) dosing regimen investigated. More particularly, if doubling the dose doubles the pharmacokinetic measure of maximal (CMax) or total (AUC) systemic exposure to the compound administered, then dose proportionality is present, at least within the dose ranges examined. […] The relationship between dose and plasma compound concentration (C (e.g., CMax or AUC)) can be described via the following equation: C=α dose^β When β=1, dose proportionality is present. If so, C=α dose. α is a constant relating dose to C, for a given range of C and given dose units, and is identical to the slope of the regression line. In the power model (Smith et al, 2000), dose proportionality is assessed via the following linear equation: log(C)=log(α)+β×log(dose)+error Based on standard statistical methods for linear models, estimates for β together with confidence limits can be derived. […]
Methods: Applying the approach by Smith (Smith et al, 2000), using a general linear model and SAS software Version 9.4, dose proportionality of continuously administered IV 5-HTP was assessed using the data in Table 9, below. […]

plasma cortisol = experiment: Pharmacodynamics: acute increase in plasma cortisol; format: in vivo, human
Source text: Background: Compounds that acutely elevate brain 5-HTExt can activate the hypothalamic pituitary adrenal axis and induce the release of cortisol from the adrenals into the plasma (Attenburrow et al, 2001; Demisch et al, 1986; Guan et al, 2020; Kapitany et al, 1999; Lowe et al, 2006; Meltzer et al, 1983; Sargent et al, 1998). Generally large, acute increases in brain 5-HTExt are required to increase cortisol and the effect desensitizes rapidly with prolonged serotonin elevation (Mashchak et al, 1983).
Method: Total plasma cortisol levels (expressed in μg/dL) were quantified using standard immunoassay methodology. Total plasma cortisol levels were measured at multiple time points during the 24 hr infusion period of 5-HTP solution for IV infusion or placebo. Total plasma cortisol levels were measured at baseline (T=0) before the start of infusion. Blood samples were collected at T=0, and at pre-specified timepoints following initiation of infusion (2, 4, 6, 8, 10, 12, 14, 22, 24 hr). The pharmacodynamic population included subjects who received IV 5-HTP and completed the 24 h infusion or placebo and who had escitalopram levels above the lower limit of quantitation.
Statistics: Changes from baseline value were calculated for each time point using descriptive statistics (n, arithmetic mean, SD, CV). A comparison between active treatment and placebo was made for each time point and cohort using ANOVA with Dunnett's post-hoc correction of the p-value to account for multiple testing. Significance was set at p<0.05. Statistical analysis was executed using SAS software Version 9.4,

**Q.** With `N[C@@H](Cc1c[nH]c2ccc(O)cc12)C(=O)O` [5-HTP, 5-hydroxytryptophan] as the compound, how does the solubility (Solubility of 5-HTP) read?
**A.** The solubility was ~10000 µg/mL (≈ 45.4 mM).

**Q.** What about the dose proportionality [1] of the same compound?
**A.** Its dose proportionality is “dose proportionality for doses up to 3 mg/kg/24 hr was accepted”.

**Q.** What about the “plasma cortisol levels relative to placebo” value (plasma cortisol; constant flow rate 1 mg/kg/24 hr, 2 hr after start of infusion, p<0.01) of the same compound?
**A.** The value was “significantly higher”.

**Q.** What about the “plasma cortisol levels relative to placebo” value (plasma cortisol; constant flow rate 3 mg/kg/24 hr, 2 hr after start of infusion, p<0.005) of the same compound?
**A.** The value was “significantly higher”.

**Q.** What about the “plasma cortisol levels relative to placebo” value (plasma cortisol; constant flow rate 3 mg/kg/24 hr, throughout the 24 hr infusion, except at the 24 hr time point) of the same compound?
**A.** Its value is “remained significantly higher”.

**Q.** And the “increase of plasma cortisol levels relative to placebo” value (plasma cortisol; ramp flow rate 1 mg/kg/24 hr, 14 hr, trend, p=0.0751)?
**A.** Its value is “not statistically significant”.

**Q.** And the “plasma cortisol levels relative to placebo” value (plasma cortisol; ramp flow rate 2 mg/kg/24 hr, 14 hr after start of infusion, p<0.05)?
**A.** The value was “significantly higher”.

**Q.** What about the “plasma cortisol levels relative to placebo” value (plasma cortisol; ramp flow rate 3 mg/kg/24 hr, 14 hr after start of infusion, p<0.0001) of the same compound?
**A.** The value was “significantly higher”.
